In US20240083897A1, “GCN2 MODULATING COMPOUNDS AND USES THEREOF” (HiberCell, Inc., priority 2021, published 2024):

The compounds below were run against GCN2 (Homo sapiens (Human), UniProt Q9P2K8) (assay: TR-FRET biochemical assay for inhibition of GCN2). Details: not given.
Sequence of GCN2 (Q9P2K8 whole entry): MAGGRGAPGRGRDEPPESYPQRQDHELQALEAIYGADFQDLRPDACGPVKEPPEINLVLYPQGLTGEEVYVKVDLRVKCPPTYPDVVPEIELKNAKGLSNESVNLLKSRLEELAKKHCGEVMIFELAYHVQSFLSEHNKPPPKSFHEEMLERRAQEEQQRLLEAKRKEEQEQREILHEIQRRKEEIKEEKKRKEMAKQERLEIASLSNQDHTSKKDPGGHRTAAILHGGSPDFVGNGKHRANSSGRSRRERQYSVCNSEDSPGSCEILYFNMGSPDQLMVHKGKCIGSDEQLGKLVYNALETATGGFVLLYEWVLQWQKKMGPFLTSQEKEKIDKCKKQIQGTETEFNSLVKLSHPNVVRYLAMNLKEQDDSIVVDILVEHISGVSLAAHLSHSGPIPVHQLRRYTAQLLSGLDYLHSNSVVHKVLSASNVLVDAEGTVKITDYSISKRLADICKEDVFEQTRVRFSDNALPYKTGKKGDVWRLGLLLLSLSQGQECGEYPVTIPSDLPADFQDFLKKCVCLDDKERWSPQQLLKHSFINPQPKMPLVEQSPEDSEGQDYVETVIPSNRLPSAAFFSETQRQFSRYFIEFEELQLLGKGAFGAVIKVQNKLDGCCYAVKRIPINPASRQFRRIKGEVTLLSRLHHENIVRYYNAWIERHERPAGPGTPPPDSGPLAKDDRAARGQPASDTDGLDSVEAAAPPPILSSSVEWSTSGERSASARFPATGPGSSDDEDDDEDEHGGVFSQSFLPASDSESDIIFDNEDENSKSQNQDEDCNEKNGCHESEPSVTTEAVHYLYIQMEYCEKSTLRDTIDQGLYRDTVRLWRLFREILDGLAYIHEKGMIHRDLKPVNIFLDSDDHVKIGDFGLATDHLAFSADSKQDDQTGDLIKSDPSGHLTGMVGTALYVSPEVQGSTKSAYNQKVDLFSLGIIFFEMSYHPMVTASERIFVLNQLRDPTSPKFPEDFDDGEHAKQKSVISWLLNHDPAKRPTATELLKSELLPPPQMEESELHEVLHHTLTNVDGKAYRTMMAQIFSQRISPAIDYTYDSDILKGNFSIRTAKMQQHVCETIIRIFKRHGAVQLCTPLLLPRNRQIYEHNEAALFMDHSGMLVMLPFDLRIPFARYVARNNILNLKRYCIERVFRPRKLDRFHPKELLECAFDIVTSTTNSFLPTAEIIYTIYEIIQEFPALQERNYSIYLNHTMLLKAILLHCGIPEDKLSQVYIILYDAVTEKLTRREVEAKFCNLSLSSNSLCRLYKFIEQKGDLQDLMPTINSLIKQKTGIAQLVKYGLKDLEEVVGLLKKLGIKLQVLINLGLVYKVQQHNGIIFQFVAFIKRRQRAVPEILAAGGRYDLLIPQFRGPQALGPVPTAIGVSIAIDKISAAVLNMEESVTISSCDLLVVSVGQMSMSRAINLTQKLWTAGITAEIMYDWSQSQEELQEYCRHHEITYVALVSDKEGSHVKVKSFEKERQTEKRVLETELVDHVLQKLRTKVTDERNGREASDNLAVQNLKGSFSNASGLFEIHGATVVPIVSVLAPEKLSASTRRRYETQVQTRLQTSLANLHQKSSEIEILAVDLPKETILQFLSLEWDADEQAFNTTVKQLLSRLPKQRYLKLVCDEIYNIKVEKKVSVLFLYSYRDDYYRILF

SMILES	IC50
COc1ncc(Cl)cc1S(=O)(=O)Nc1ccc(F)c(-c2ccc3c(-c4nnc[nH]4)ncn3c2)c1F [Compound 29, 5-chloro-N-[2,4-difluoro-3-[1-(4H-1,2,4-triazol-3-yl)imidazo[1,5-a]pyridin-6-yl]phenyl]-2-methoxypyridine-3-sulfonamide]	< 50 nM
CNC(=O)c1ncn2c1CC[C@H](c1c(F)ccc(NS(=O)(=O)c3cc(C#N)cnc3OC)c1F)C2 [Compound 68-1, (R)-6-(3-((5-cyano-2-methoxypyridine)-3-sulfonamido)-2,6-difluorophenyl)-N-methyl-5,6,7,8-tetrahydroimidazo[1,5-a]pyridine-1-carboxamide]	50 to 500 nM
COc1ncc(Cl)cc1S(=O)(=O)Nc1ccc(F)c(-c2ccc3c(-n4nccn4)ncn3c2)c1F [Compound 55-2, 5-chloro-N-[2,4-difluoro-3-[1-(1,2,3-triazol-2-yl)imidazo[1,5-a]pyridin-6-yl]phenyl]-2-methoxypyridine-3-sulfonamide]	500 to 1000 nM
COc1ncc(C#N)cc1S(=O)(=O)Nc1ccc(F)c([C@@H]2CCc3c(-c4ncc[nH]4)ncn3C2)c1F [Compound 82-2, 5-cyano-N-[2,4-difluoro-3-[(6S)-1-(1H-imidazol-2-yl)-5H,6H,7H,8H-imidazo[1,5-a]pyridin-6-yl]phenyl]-2-methoxypyridine-3-sulfonamide]	50 to 500 nM
CNC(=O)c1ncn2cc(-c3c(F)ccc(NS(=O)(=O)c4cc(Cl)cnc4OC4CC4)c3F)ncc12 [Compound 169, 6-[3-(5-chloro-2-cyclopropoxypyridine-3-sulfonamido)-2,6-difluorophenyl]-N-methylimidazo[1,5-a]pyrazine-1-carboxamide]	50 to 500 nM
CNC(=O)c1ncn2c1CO[C@@H](c1c(F)ccc(NS(=O)(=O)c3cc(Cl)cnc3OC)c1F)C2 [Compound 154-1, (6S)-6-[3-(5-chloro-2-methoxypyridine-3-sulfonamido)-2,6-difluorophenyl]-N-methyl-5H,6H,8H-imidazo[4,3-c][1,4]oxazine-1-carboxamide]	50 to 500 nM
COc1ncc(F)cc1S(=O)(=O)Nc1ccc(F)c(-c2cn3cnc(-c4nnc(C)[nH]4)c3cn2)c1F [Compound 127, N-[2,4-difluoro-3-[1-(5-methyl-4H-1,2,4-triazol-3-yl)imidazo[1,5-a]pyrazin-6-yl]phenyl]-5-fluoro-2-methoxypyridine-3-sulfonamide]	50 to 500 nM

Same assay, conditions: GCN2 2 nM, 100 nM GFP-eIF2a, 150 μM ATP, TR-FRET

SMILES	IC50
CNC(=O)c1ncn2cc(-c3c(Cl)ccc(NS(=O)(=O)c4cc(Cl)cnc4OC)c3F)ncc12 [Compound 141, 6-(6-chloro-3-((5-chloro-2-methoxypyridine)-3-sulfonamido)-2-fluorophenyl)-N-methylimidazo[1,5-a]pyrazine-1-carboxamide]	< 50 nM
Cc1cnc(-c2ncn3cc(-c4c(F)ccc(NS(=O)(=O)c5cc(F)cnc5C)c4F)ccc23)[nH]1 [Compound 50, N-[2,4-difluoro-3-[1-(4-methyl-3H-imidazol-2-yl)imidazo[1,5-a]pyridin-6-yl]phenyl]-5-fluoro-2-methylpyridine-3-sulfonamide]	< 50 nM
COc1ncc(F)cc1S(=O)(=O)Nc1ccc(F)c(-c2ccc3c(-c4ncc[nH]4)ncn3c2)c1F [Compound 18, N-[2,4-difluoro-3-[1-(1H-imidazol-2-yl)imidazo[1,5-a]pyridin-6-yl]phenyl]-5-fluoro-2-methoxypyridine-3-sulfonamide]	< 50 nM
COc1ncc(F)cc1S(=O)(=O)Nc1ccc(F)c(-c2ccc3c(-c4nc(Cl)c[nH]4)ncn3c2)c1F [Compound 45, N-[3-[1-(4-chloro-1H-imidazol-2-yl)imidazo[1,5-a]pyridin-6-yl]-2,4-difluorophenyl]-5-fluoro-2-methoxypyridine-3-sulfonamide]	< 50 nM
COc1ncc(Cl)cc1S(=O)(=O)Nc1ccc(F)c(-c2ccc3c(-c4ncc[nH]4)ncn3c2)c1C#N [Compound 38, 5-chloro-N-[2-cyano-4-fluoro-3-[1-(1H-imidazol-2-yl)imidazo[1,5-a]pyridin-6-yl]phenyl]-2-methoxypyridine-3-sulfonamide]	< 50 nM
CNC(=O)c1ncn2c(F)c(-c3c(F)ccc(NS(=O)(=O)c4cc(Cl)cnc4C)c3F)ncc12 [Compound 186, 6-[3-(5-chloro-2-methylpyridine-3-sulfonamido)-2,6-difluorophenyl]-5-fluoro-N-methylimidazo[1,5-a]pyrazine-1-carboxamide]	< 50 nM
Cc1ncc(F)cc1S(=O)(=O)Nc1ccc(F)c(-c2ccc3c(-c4ncc[nH]4)ncn3c2F)c1F [Compound 108, N-[2,4-difluoro-3-[5-fluoro-1-(1H-imidazol-2-yl)imidazo[1,5-a]pyridin-6-yl]phenyl]-5-fluoro-2-methylpyridine-3-sulfonamide]	< 50 nM
COc1ncc(Cl)cc1S(=O)(=O)Nc1ccc(F)c(-c2cn3cnc(C(=O)Nc4ccc(CN(C)C)cc4)c3cn2)c1F [Compound 181, 6-[3-(5-chloro-2-methoxypyridine-3-sulfonamido)-2,6-difluorophenyl]-N-[4-[(dimethylamino)methyl]phenyl]imidazo[1,5-a]pyrazine-1-carboxamide]	< 50 nM
CNC(=O)c1ncn2c1CCC(c1c(Cl)ccc(NS(=O)(=O)c3cc(F)cnc3OC)c1F)C2 (stereo in doubt) [Compound 155-1, (6R)-6-[6-chloro-2-fluoro-3-(5-fluoro-2-methoxypyridine-3-sulfonamido)phenyl]-N-methyl-5H,6H,7H,8H-imidazo[1,5-a]pyridine-1-carboxamide]	< 50 nM
COc1ncc(Cl)cc1S(=O)(=O)Nc1ccc(F)c(-c2ccc3c(-c4ccn[nH]4)ncn3c2)c1F [Compound 32, 5-chloro-N-[2,4-difluoro-3-[1-(2H-pyrazol-3-yl)imidazo[1,5-a]pyridin-6-yl]phenyl]-2-methoxypyridine-3-sulfonamide]	< 50 nM
COc1ncc(Cl)cc1S(=O)(=O)Nc1ccc(F)c([C@H]2CCc3c(-c4nnc(C)[nH]4)ncn3C2)c1F [Compound 130-2, 5-chloro-N-[2,4-difluoro-3-[(6R)-1-(5-methyl-4H-1,2,4-triazol-3-yl)-5H,6H,7H,8H-imidazo[1,5-a]pyridin-6-yl]phenyl]-2-methoxypyridine-3-sulfonamide]	< 50 nM
N#Cc1cc2c(c(S(=O)(=O)Nc3ccc(F)c(-c4ccc5c(-c6ncc[nH]6)ncn5c4)c3F)c1)CCC2O (stereo not shown) [Compound 39, 6-cyano-N-[2,4-difluoro-3-[1-(1H-imidazol-2-yl)imidazo[1,5-a]pyridin-6-yl]phenyl]-1-hydroxy-2,3-dihydro-1H-indene-4-sulfonamide]	< 50 nM
COc1ncc(Cl)cc1S(=O)(=O)Nc1ccc(F)c(-c2ccc3c(-c4cnn[nH]4)ncn3c2)c1F [Compound 34, 5-chloro-N-[2,4-difluoro-3-[1-(3H-1,2,3-triazol-4-yl)imidazo[1,5-a]pyridin-6-yl]phenyl]-2-methoxypyridine-3-sulfonamide]	< 50 nM
Cc1ncc(F)cc1S(=O)(=O)Nc1ccc(F)c(-c2ccc3c(-c4ncc[nH]4)ncn3c2)c1F [Compound 19, N-[2,4-difluoro-3-[1-(1H-imidazol-2-yl)imidazo[1,5-a]pyridin-6-yl]phenyl]-5-fluoro-2-methylpyridine-3-sulfonamide]	< 50 nM
COc1ncc(F)cc1S(=O)(=O)Nc1ccc(F)c(-c2ccc3c(-c4nc(Cl)c[nH]4)ncn3c2F)c1F [Compound 115, N-[3-[1-(4-chloro-1H-imidazol-2-yl)-5-fluoroimidazo[1,5-a]pyridin-6-yl]-2,4-difluorophenyl]-5-fluoro-2-methoxypyridine-3-sulfonamide]	< 50 nM
